Reference: US7135466B2 (Kirin Beer Kabushiki Kaisha, priority 1999, dated 2006)

Assays:
c-kit = molecular target: T1, c-kit (Homo sapiens, UniProt P10721); test: Inhibitory activity against c-kit autophosphorylation (MO7e cells, h-SCF); assay type: cell-based; conditions: MO7e cells, 50 ng/ml h-SCF; read-out: c-kit IC50
T1 construct: MO7e (human megakaryocytic leukemia cell line) which had been arrested for 20 hr; endogenous in cells; host or cells: MO7e human megakaryocytic leukemia cell line
Method in brief: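 In this cellular autophosphorylation assay, compound-treated MO7e cells (1 hr) were challenged with human stem cell factor at 50 ng/ml for 5 min; detection relied on PY-20 capture and anti-c-kit/HRP immunodetection at 450 nm.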

PDGF-Ra = molecular target: T2, PDGF-Ra (Homo sapiens, UniProt P16234); test: Inhibitory activity against PDGF-Ra phosphorylation by PDGF-AA stimulation using G292; assay type: cell-based; conditions: > means inhibition at indicated concentration not more than 50%, < and << not less than 50%; read-out: PDGF (E) IC50
T2 construct: host or cells: G-292 human osteosarcoma cells
T2 sequence (P16234 24-1089): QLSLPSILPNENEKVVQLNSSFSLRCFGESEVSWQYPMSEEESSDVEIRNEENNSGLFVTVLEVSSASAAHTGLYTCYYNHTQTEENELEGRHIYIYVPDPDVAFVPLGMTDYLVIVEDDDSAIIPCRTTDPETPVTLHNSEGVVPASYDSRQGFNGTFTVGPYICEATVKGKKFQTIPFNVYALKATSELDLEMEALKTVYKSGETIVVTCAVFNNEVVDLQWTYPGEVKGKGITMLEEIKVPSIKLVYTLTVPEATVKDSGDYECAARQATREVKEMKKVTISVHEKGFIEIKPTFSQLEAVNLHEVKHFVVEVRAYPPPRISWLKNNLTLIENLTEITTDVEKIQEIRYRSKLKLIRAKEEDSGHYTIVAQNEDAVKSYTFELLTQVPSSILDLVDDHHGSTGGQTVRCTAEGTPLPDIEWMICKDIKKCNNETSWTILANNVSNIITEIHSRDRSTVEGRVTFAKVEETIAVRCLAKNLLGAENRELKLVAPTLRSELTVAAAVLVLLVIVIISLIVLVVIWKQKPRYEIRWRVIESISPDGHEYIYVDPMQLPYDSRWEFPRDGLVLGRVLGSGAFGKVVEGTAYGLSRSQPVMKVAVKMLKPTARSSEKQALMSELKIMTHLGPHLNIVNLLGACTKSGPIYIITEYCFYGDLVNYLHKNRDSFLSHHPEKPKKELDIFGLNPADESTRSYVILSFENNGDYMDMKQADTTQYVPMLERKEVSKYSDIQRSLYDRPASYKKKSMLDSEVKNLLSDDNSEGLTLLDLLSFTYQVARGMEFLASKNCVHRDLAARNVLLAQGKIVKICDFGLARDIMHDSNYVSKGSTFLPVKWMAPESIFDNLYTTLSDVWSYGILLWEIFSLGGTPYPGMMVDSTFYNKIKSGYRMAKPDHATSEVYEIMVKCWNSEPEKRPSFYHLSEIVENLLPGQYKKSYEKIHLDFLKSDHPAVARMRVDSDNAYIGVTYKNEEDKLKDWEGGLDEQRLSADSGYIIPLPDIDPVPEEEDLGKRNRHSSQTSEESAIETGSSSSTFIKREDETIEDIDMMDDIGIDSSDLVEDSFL
Method in brief: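 Phosphorylated PDGF-Ra was measured colorimetrically (450 nm) after tyrosine-phosphorylated proteins from G-292 lysates were bound to PY-20-coated wells and detected with anti-PDGF-Ra antibody. Compound preincubation lasted 1 hr, followed by 50 ng/ml PDGF-AA for 5 min.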

T1 sequence (P10721 26-976): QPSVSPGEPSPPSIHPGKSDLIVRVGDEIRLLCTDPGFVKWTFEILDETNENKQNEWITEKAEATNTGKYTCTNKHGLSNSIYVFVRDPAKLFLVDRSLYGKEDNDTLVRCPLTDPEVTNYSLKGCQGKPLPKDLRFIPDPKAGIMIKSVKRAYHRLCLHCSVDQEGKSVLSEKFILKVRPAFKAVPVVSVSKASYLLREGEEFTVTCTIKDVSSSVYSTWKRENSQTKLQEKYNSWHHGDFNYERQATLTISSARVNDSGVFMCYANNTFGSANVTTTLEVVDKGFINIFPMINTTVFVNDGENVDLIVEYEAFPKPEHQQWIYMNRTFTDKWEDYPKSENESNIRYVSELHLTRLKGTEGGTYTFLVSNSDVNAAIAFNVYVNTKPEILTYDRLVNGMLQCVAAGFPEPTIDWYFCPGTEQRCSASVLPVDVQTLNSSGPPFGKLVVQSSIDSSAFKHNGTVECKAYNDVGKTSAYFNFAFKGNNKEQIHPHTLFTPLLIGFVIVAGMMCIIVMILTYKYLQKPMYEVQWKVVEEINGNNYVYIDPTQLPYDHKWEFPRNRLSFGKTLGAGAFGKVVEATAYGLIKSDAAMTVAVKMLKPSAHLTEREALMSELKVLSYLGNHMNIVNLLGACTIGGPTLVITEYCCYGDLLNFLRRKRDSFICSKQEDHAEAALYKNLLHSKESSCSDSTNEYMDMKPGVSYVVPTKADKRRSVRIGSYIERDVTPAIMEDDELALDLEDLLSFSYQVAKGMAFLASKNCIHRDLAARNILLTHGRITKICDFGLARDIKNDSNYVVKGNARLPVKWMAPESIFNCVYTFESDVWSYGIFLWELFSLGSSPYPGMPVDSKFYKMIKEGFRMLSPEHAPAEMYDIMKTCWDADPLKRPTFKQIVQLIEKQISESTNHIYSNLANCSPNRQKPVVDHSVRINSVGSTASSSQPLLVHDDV

Row | IC50 (c-kit) [nM] | IC50 (PDGF-Ra) [nM] | Compound
1 | 85 | < 10 | COc1cc2ncnc(Oc3ccc(NC(=S)NC(=O)CCc4ccc(C)cc4)cc3)c2cc1OC [Example 722, N-{4-[(6,7-Dimethoxy-4-quinazolinyl)oxy]phenyl}-N′-[3-(4-methylphenyl)propanoyl]thiourea]
2 | 380 | 17 | COc1cc2nccc(Oc3ccc(NC(=S)NC(=O)Cc4ccccc4Cl)cc3)c2cc1OC [Example 723, N-[2-(2-Chlorophenyl)acetyl]-N′-{4-[(6,7-dimethoxy-4-quinolyl)oxy]phenyl}thiourea]
3 | 116 | < 10 | COc1cc2ncnc(Oc3ccc(NC(=S)NC(=O)Cc4ccccc4Cl)cc3)c2cc1OC [Example 724, N-[2-(2-Chlorophenyl)acetyl]-N′-{4-[(6,7-dimethoxy-4-quinazolinyl)oxy]phenyl}thiourea]
4 | 413 | < 10 | COc1cc2nccc(Oc3ccc(NC(=S)NC(=O)CCCc4ccccc4)cc3)c2cc1OC [Example 725, N-{4-[(6,7-Dimethoxy-4-quinolyl)oxy]phenyl}-N′-(4-phenylbutanoyl)thiourea]
5 | 624 | 37 | COc1cc2nccc(Oc3ccc(NC(=S)NC(=O)CCCc4ccccc4)cc3Cl)c2cc1OC [Example 726, N-{3-Chloro-4-[(6,7-dimethoxy-4-quinolyl)oxy]phenyl}-N′-(4-phenylbutanoyl)thiourea]
6 | 634 | 34 | COc1cc2nccc(Oc3ccc(NC(=S)NC(=O)Cc4ccccc4F)cc3Cl)c2cc1OC [Example 730, N-{3-Chloro-4-[(6,7-dimethoxy-4-quinolyl)oxy]phenyl}-N′-[2-(2-fluorophenyl)acetyl]thiourea]
7 | 259 | 17 | COc1cc2nccc(Oc3ccc(NC(=S)NC(=O)CCc4ccccc4C)cc3)c2cc1OC [Example 731, N-{4-[(6,7-Dimethoxy-4-quinolyl)oxy]phenyl}-N′-[3-(2-methylphenyl)propanoyl]thiourea]
8 | 186 | 29 | COc1ccccc1CC(=O)NC(=S)Nc1ccc(Oc2ccnc3cc(OC)c(OC)cc23)cc1 [Example 733, N-{4-[(6,7-Dimethoxy-4-quinolyl)oxy]phenyl}-N′-[2-(2-methoxyphenyl)acetyl]thiourea]
9 | 216 | 29 | COc1ccccc1CC(=O)NC(=S)Nc1ccc(Oc2ccnc3cc(OC)c(OC)cc23)c(Cl)c1 [Example 734, N-{3-Chloro-4-[(6,7-dimethoxy-4-quinolyl)oxy]phenyl}-N′-[2-(2-methoxyphenyl)acetyl]thiourea]
10 | 523 | < 10 | COc1cc2nccc(Oc3ccc(NC(=S)NC(=O)COc4ccccc4)cc3)c2cc1OC [Example 737, N-{4-[(6,7-Dimethoxy-4-quinolyl)oxy]phenyl}-N′-(2-phenoxyacetyl)thiourea]
11 | 269 | 11 | COc1cc2nccc(Oc3ccc(NC(=S)NC(=O)COc4ccccc4)cc3Cl)c2cc1OC [Example 738, N-{3-Chloro-4-[(6,7-dimethoxy-4-quinolyl)oxy]phenyl}-N′-(2-phenoxyacetyl)thiourea]
12 | 234 | < 10 | COc1cc2nccc(Oc3ccc(NC(=S)NC(=O)COc4ccccc4C)cc3)c2cc1OC [Example 739, N-{4-[(6,7-Dimethoxy-4-quinolyl)oxy]phenyl}-N′-[2-(2-methylphenoxy)acetyl]thiourea]
13 | 335 | 23 | COc1cc2nccc(Oc3ccc(NC(=S)NC(=O)COc4ccccc4C)cc3Cl)c2cc1OC [Example 740, N-{3-Chloro-4-[(6,7-dimethoxy-4-quinolyl)oxy]phenyl}-N′-[2-(2-methylphenoxy)acetyl]thiourea]
14 | 548 | 10 | COc1cc2nccc(Oc3ccc(NC(=S)NC(=O)[C@H](C)c4ccccc4)cc3)c2cc1OC [Example 743, N-{4-[(6,7-Dimethoxy-4-quinolyl)oxy]phenyl}-N′-[(2R)-2-phenylpropanoyl]thiourea]
